The results in this text go back to patent US10544140B2, “Pharmaceutical composition containing, as active ingredient, 7-azaindolin-2-one derivative or pharmaceutically acceptable salt thereof” (LG CHEM, LTD., priority 2015, dated 2020).

Series [1] concerns MCF-7 (human breast cancer cell line). Briefly: Cytotoxicity test by MTT assay, MCF-7. The settings on record: for cytotoxicity at 30 µM / IC50: Homo sapiens, MCF7; for cytotoxicity at 30 µM: MCF-7, 30 μM, 48 h, read-out: Cell viability (% inhibition); for IC50: MCF-7, 48 h. It is filed as cell-based. How it is done: (§1) A cytotoxicity test was measured by MTT assay. Each cell line was cultured in a 96-well plate at a density of 1×10^4 cells/well. […] MTT (3-(4,5-dimethylthiazol-2-yl)-2,5-diphenyltetrazolium bromide) solution (5 mg/mL) was added to each well and reacted for 4 hours in an incubator. […] After reacting in an incubator for 30 minutes, the formation of formazan was quantified using a microplate reader at an absorbance of 540 nm. […] At this time, sunitinib was used as a control group. […] The human cancer cell lines used herein are MCF-7 (breast cancer), MDA-MB-231 (breast cancer), HT-29 (colon cancer), DU145 (prostate cancer), U937 (myeloid leukemia), A549 (lung cancer), PANC-1 (pancreatic cancer) and MIA PaCa-2 (pancreatic cancer).
(In general: Tetrazolium dyes change colour on reduction, which living cells bring about.)

The subject of series [2] is PANC-1 (human pancreatic cancer cell line). Briefly: Cytotoxicity test by MTT assay, PANC-1. The class given is cell-based. The settings on record: for cytotoxicity at 30 µM / IC50: Homo sapiens; for cytotoxicity at 30 µM: PANC-1, 30 μM, 48 h, read-out: Cell viability (% inhibition); for IC50: PANC-1, 48 h. How it is done:
as §1

For series [3], the system named is MDA-MB-231 (breast cancer). Briefly: Cytotoxicity test by MTT assay, MDA-MB-231. It is filed as cell-based, human. The note with it: Homo sapiens, MBA-MB-231, 48 h. How it is done: (§2) A cytotoxicity test was measured by MTT assay. Each cell line was cultured in a 96-well plate at a density of 1×10^4 cells/well. After 24 hours, the culture medium containing 1% FBS (fetal bovine serum) was treated and reacted with compounds or solutions of compounds for 48 hours. MTT (3-(4,5-dimethylthiazol-2-yl)-2,5-diphenyltetrazolium bromide) solution (5 mg/mL) was added to each well and reacted for 4 hours in an incubator. […] After reacting in an incubator for 30 minutes, the formation of formazan was quantified using a microplate reader at an absorbance of 540 nm. […] The human cancer cell lines used herein are MCF-7 (breast cancer), MDA-MB-231 (breast cancer), HT-29 (colon cancer), DU145 (prostate cancer), U937 (myeloid leukemia), A549 (lung cancer), PANC-1 (pancreatic cancer) and MIA PaCa-2 (pancreatic cancer).

The subject of another series is HT-29 (colon cancer). Briefly: Cytotoxicity test by MTT assay, HT-29. The class given is cell-based, human. The settings on record: Homo sapiens, HT-29, 48 h. How it is done: as §2
The test system of a further series is DU145 (prostate cancer). Briefly: Cytotoxicity test by MTT assay, DU145. The class given is cell-based, human. The note with it: DU-145; for IC50: Homo sapiens, DU145, 48 h. How it is done:
as §2

The subject of a further series is U937 (myeloid leukemia). Briefly: Cytotoxicity test by MTT assay, U937. The note with it: Homo sapiens, U-937; U937, 48 h. The class given is cell-based, human. How it is done:
as §2

For a further series, the system named is A549 (lung cancer). Briefly: Cytotoxicity test by MTT assay, A549. It is filed as cell-based, human. The settings on record: Homo sapiens, A549, 48 h. How it is done:
as §2

Series [4] can be described thus: Cytotoxicity test by MTT assay, HEK293 normal cell line. The class given is cell-based. The settings on record: human, HEK293 cells (normal cell line). How it is done: (§3) A cytotoxicity test was measured by MTT assay. Each cell line was cultured in a 96-well plate at a density of 1×10^4 cells/well. After 24 hours, the culture medium containing 1% FBS (fetal bovine serum) was treated and reacted with compounds or solutions of compounds for 48 hours. MTT (3-(4,5-dimethylthiazol-2-yl)-2,5-diphenyltetrazolium bromide) solution (5 mg/mL) was added to each well and reacted for 4 hours in an incubator. […] After reacting in an incubator for 30 minutes, the formation of formazan was quantified using a microplate reader at an absorbance of 540 nm.

Series [5] in a line: Cytotoxicity test by MTT assay, CHO-K1 normal cell line. The class given is cell-based. The note with it: Chinese hamster, CHO-K1 cells (normal cell line). How it is done:
as §3

Usually IC50 stands for the point on the concentration scale where inhibition reaches its midpoint. For `CCCCC/C=C1\C(=O)Nc2nc(C)c(O)c(C)c21` [Compound I-01, (Z)-3-Hexylidene-5-hydroxy-4,6-dimethyl-1H-pyrrolo[2,3-b]pyridin-2(3H)-one], the cytotoxicity at 30 µM in [1] was 76.9%; in series [2], 77.4%. Further, the IC50 in series [1] worked out at 13.8 µM; in series [3], 12.6 µM; in the series with HT-29 (colon cancer), 12.9 µM; in the series with DU145 (prostate cancer), 11 µM; with U937 (myeloid leukemia), 11.5 µM; with A549 (lung cancer) it was 7.6 µM. The IC50 at 48 h in series [4] is above 90 µM; in [5] it was 20.9 µM.
Take `COc1ccc(OC)c(/C=C2\C(=O)Nc3nc(C)c(O)c(C)c32)c1` [Compound I-15, (Z)-3-(2,5-Dimethoxybenzylidene)-5-hydroxy-4,6-dimethyl-1H-pyrrolo[2,3-b]pyridin-2(3H)-one]: the results for the cytotoxicity at 30 µM in [1] and in series [2] were 67.5% and 69.2%, respectively. The IC50 in series [1] is 20.9 µM; in series [2], 19.5 µM; in series [3] it was 22.9 µM; in the series with HT-29 (colon cancer), 16.6 µM; in the series with DU145 (prostate cancer) it was 5.55 µM; with U937 (myeloid leukemia), 33 µM. In the series on A549 (lung cancer), this compound came in with an IC50 of 47.5 µM. Moreover, the “cytotoxicity compared with the reference drug sunitinib” value with DU145 (prostate cancer) is reported as “greater than or equal to that of the reference drug sunitinib”. The 50% inhibitory concentration (IC50) at 48 h in series [4] was 37.8 µM; in series [5] it was 47.5 µM.
In the case of `COc1ccc(Br)cc1/C=C1\C(=O)Nc2nc(C)c(O)c(C)c21` [Compound I-17, (Z)-3-(5-bromo-2-methoxybenzylidene)-5-hydroxy-4,6-dimethyl-1H-pyrrolo[2,3-b]pyridin-2(3H)-one], the cytotoxicity at 30 µM in series [1] was found to be 74.7%; in series [2] it was 71.7%. In addition, the IC50 was determined as 11 µM in series [1]; 10.5 µM in [3]; 25.1 µM with HT-29 (colon cancer); 4.57 µM in the series on DU145 (prostate cancer); 12.6 µM in the series with U937 (myeloid leukemia); 10.1 µM in the series on A549 (lung cancer). Besides, the “cytotoxicity compared with the reference drug sunitinib” value with DU145 (prostate cancer) is on record as “greater than or equal to that of the reference drug sunitinib”. Further, the figures for the concentration for half-maximal inhibition (IC50) at 48 h in series [4] and in series [5] were 33 µM and 30.1 µM, respectively.
Take `Cc1nc2c(c(C)c1O)/C(=C/C(c1ccccc1)c1ccccc1)C(=O)N2` [Compound I-19, (Z)-3-(2,2-Diphenylethylidene)-5-hydroxy-4,6-dimethyl-1H-pyrrolo[2,3-b]pyridin-2(3H)-one]: the cytotoxicity at 30 µM in series [1] is 78.1%; in [2], 81.4%. The half-maximal inhibitory concentration (IC50) is 6.37 µM in series [1]; 7.41 µM in [2]; 22.9 µM in [3]; 11.5 µM with HT-29 (colon cancer); 8.77 µM in the series on DU145 (prostate cancer); 16.6 µM in the series with U937 (myeloid leukemia). For the same compound, inhibition with A549 (lung cancer) was half-maximal at 31.5 µM (IC50). Further, the “cytotoxicity compared with the reference drug sunitinib” value in series [1] (MCF-7) and in [2] (PANC-1) was “greater than or equal to that of the reference drug sunitinib” throughout. For the same compound, the concentration for half-maximal inhibition (IC50) at 48 h stood at 26.2 µM in series [4] and 30.1 µM in [5].
In the case of `Cc1nc2c(c(C)c1O)/C(=C/c1ccncc1)C(=O)N2` [Compound I-23, (Z)-5-Hydroxy-4,6-dimethyl-3-(pyridin-4-ylmethylene)-1H-pyrrolo[2,3-b]pyridin-2(3H)-one], the values for the cytotoxicity at 30 µM in series [1] and in [2] were 63.2% and 65.4%, respectively. In addition, the half-maximal inhibitory concentration (IC50) in series [1] turned out to be 19.1 µM; in series [2] it was 19.1 µM; in the series with HT-29 (colon cancer) it was 30.1 µM; in the series on DU145 (prostate cancer) it was 30.1 µM; in the series on U937 (myeloid leukemia), 34.5 µM; in the series on A549 (lung cancer), 30.1 µM. In addition, the half-maximal inhibitory concentration (IC50) at 48 h came out at 45.7 µM in series [4] and 57 µM in series [5].
As for `Cc1nc2c(c(C)c1O)/C(=C/c1ccoc1)C(=O)N2` [Compound I-28, (Z)-3-(Furan-3-ylmethylene)-5-hydroxy-4,6-dimethyl-1H-pyrrolo[2,3-b]pyridin-2(3H)-one], the cytotoxicity at 30 µM in [1] was 66.3%; in [2] it was 26.1%. The values for the half-inhibitory concentration (IC50) (in series [1]; in the series with DU145 (prostate cancer); with U937 (myeloid leukemia)) were 22.9 µM, 22.9 µM and 31.5 µM, respectively. The IC50 at 48 h in series [4] is 19.9 µM; in series [5], above 90 µM.
Turning to `CCOC(=O)c1c(C)[nH]c(/C=C2\C(=O)Nc3nc(C)c(O)c(C)c32)c1C` [Compound I-38, (Z)-Ethyl-5-((5-hydroxy-4,6-dimethyl-2-oxo-1H-pyrrolo[2,3-b]pyridin-3(2H)-ylidene)methyl)-2,4-dimethyl-1H-pyrrole-3-carboxylate], the cytotoxicity at 30 µM in series [1] is 41.7%; in series [2] it was 35.7%. The half-maximal inhibitory concentration (IC50) in series [1] turned out to be 39.8 µM; in [3] it was 24.5 µM; in the series with HT-29 (colon cancer), 22.9 µM; in the series with U937 (myeloid leukemia), 12.9 µM; in the series with A549 (lung cancer), 18.2 µM. Further, the values for the IC50 at 48 h in [4] and in series [5] were above 90 µM and 24 µM, respectively.
With `Cc1nc2c(c(C)c1O)/C(=C/c1[nH]c(C)c(C(=O)NCCN3CCCCC3)c1C)C(=O)N2` [Compound I-42, (Z)-5-((5-Hydroxy-4,6-dimethyl-2-oxo-1H-pyrrolo[2,3-b]pyridin-3(2H)-ylidene)methyl)-2,4-dimethyl-N-(2-(piperidin-1-yl)ethyl)-1H-pyrrole-3-carboxamide], the values for the cytotoxicity at 30 µM in series [1] and in series [2] were 63.4% and 70.7%, respectively. In addition, the IC50 in series [1] was 8.7 µM; in [3] it was 8.12 µM; in the series with HT-29 (colon cancer), 15.2 µM; with U937 (myeloid leukemia) it was 14.8 µM; in the series on A549 (lung cancer), 13.2 µM. Also, the IC50 at 48 h worked out at 21.4 µM in [4] and 51.3 µM in [5].
Regarding `Cc1nc2c(c(C)c1O)/C(=C/c1[nH]c(C)c(C(=O)N3CCCCC3)c1C)C(=O)N2` [Compound I-43, (Z)-3-((3,5-Dimethyl-4-(piperidine-1-carbonyl)-1H-pyrrol-2-yl)methylene)-5-hydroxy-4,6-dimethyl-1H-pyrrolo[2,3-b]pyridin-2(3H)-one], the cytotoxicity at 30 µM in [1] amounted to 50.5%; in [2], 38.5%. Moreover, the half-inhibitory concentration (IC50) in series [1] is 26.9 µM; in series [3], 14.8 µM; in the series with HT-29 (colon cancer), 16.6 µM; in the series on U937 (myeloid leukemia) it was 9.77 µM; with A549 (lung cancer), 12.1 µM. The IC50 at 48 h in series [4] is above 90 µM; in [5] it was 14.8 µM.
On to `Cc1nc2c(c(C)c1O)/C(=C/c1[nH]c(C)c(C(=O)N3CCCC3)c1C)C(=O)N2` [Compound I-44, (Z)-3-((3,5-Dimethyl-4-(pyrrolidine-1-carbonyl)-1H-pyrrol-2-yl)methylene)-5-hydroxy-4,6-dimethyl-1H-pyrrolo[2,3-b]pyridin-2(3H)-one], for which the cytotoxicity at 30 µM was 47.7% in [1] and 31.8% in series [2]. For the same compound, the 50% inhibitory concentration (IC50) in [1] is 34.7 µM; in [3], 43.6 µM; with HT-29 (colon cancer), 43.4 µM; in the series on U937 (myeloid leukemia), 52.5 µM; with A549 (lung cancer), 50.1 µM. Also, the IC50 at 48 h in series [4] is above 90 µM; in [5], 58.9 µM.
For `Cc1nc2c(c(C)c1O)/C(=C/c1[nH]c(C)c(C(=O)N3CCN(C)CC3)c1C)C(=O)N2` [Compound I-45, (Z)-3-((3,5-Dimethyl-4-(4-methylpiperazine-1-carbonyl)-1H-pyrrol-2-yl)methylene)-5-hydroxy-4,6-dimethyl-1H-pyrrolo[2,3-b]pyridin-2(3H)-one], the cytotoxicity at 30 µM in series [1] was 60.7%; in series [2], 48.7%. Besides, the half-maximal inhibitory concentration (IC50) in series [1] was 10.2 µM; in [3] it was 16.2 µM; with HT-29 (colon cancer), 36.1 µM; in the series with U937 (myeloid leukemia), 26.2 µM; in the series with A549 (lung cancer), 26.3 µM. The IC50 at 48 h in series [4] amounted to 38 µM; in series [5], 23.4 µM.
